According to patent publication US20230174933A1, “METHODS OF MAKING CHIMERIC ANTIGEN RECEPTOR-EXPRESSING CELLS” (Novartis AG, priority 2020, published 2023):

Legend:
[1] = system: BCMA-CAR; assay: ARM-BCMA CAR expression kinetics in vitro with or without AZT (FACS); format: cell-based; settings: AZT 30 μM and 100 μM
Experimental: In contrast to TM which measures lentiviral integration of the CAR transgene after 8-9 days, in the ARM process, the lentiviral transgene may not be fully integrated and truly expressed within 24 h post lentiviral addition, as lentiviral pseudotransduction could occur (Haas D L, et al., (2000) Mol Ther; 2(1):71-80; Galla M, et al., (2004) Mol Cell; 16(2):309-15). […] Flow cytometry (FACS) analyses were performed to detect CAR surface expression at 24 h, 48 h, 72 h, 96 h and 168 h post T cell activation and transduction with the lentiviral vector. In some cases, ARM-BCMA CAR and an aliquot of this product were frozen down immediately upon harvest for additional characterization in other assays.

[2] = system: T cells activated with αCD3αCD28 beads; assay: Fold expansion, cell size and viability of cytokine treated T cells after TCR engagement; format: cell-based; settings: T cells activated with αCD3αCD28 beads at day 0 in the presence of cytokine
Text: FIG. 12: Fold expansion of cytokine treated T cells after TCR engagement. T cells were activated with αCD3αCD28 beads at day 0 in the presence of indicated cytokines and then monitored for cell numbers at indicated time points.
T cells were activated with αCD3αCD28 beads at day 0 in the presence of indicated cytokines and then monitored for cell size (FIG. 13A) and viability (FIG. 13B) at indicated time points.

[3] = system: T cells; assay: T cell expansion with cytokines after αCD3/αCD28 bead stimulation; format: cell-based
Experimental: Previously frozen T cells were thawed and contacted with αCD3/αCD28 dynal beads (cell to bead ratio of 1 to 3) in the presence of indicated cytokines at day 0. From day 3, twice more T cell growth media (RPMI1640, 10% FBS, 2 mM L-glutamin, 100 μM non-essential amino acids, 1 mM sodium pyruvate, 10 mM Hepes, 55 μM β-mercaptoethanol, 10% FBS, and 100 U/ml of penicillin-streptomycin) was added to the plate with indicated cytokines (without cytokine, rhIL2 (50 IU/ml, Novartis), IL6 (long/ml, R&D systems), IL7 (long/ml, Peprotech), IL15 (long/ml, Peprotech), and IL21 (long/ml, Peprotech)) at day 3, 5, 6, 9, 12, 15, and 18.
Cells were harvested at indicated time points and then stained with live/dead dye (eFluro780, eBioscience), CD3 (BioLegend, clone#: OKT3), CD4 (BioLegend, clone#: OKT4), CD8 (BD Bioscience, clone#: RPA-T8), CD45RO (BioLegend, clone#: UCHL1), CCR7 (BioLegend, clone#: G043H7), CD27 (BD Horizon, clone#: L128), CD127 (BioLegend, clone#: A019D5), CD57 (BioLegend, clone#: HCD57), CD126 (BioLegend, clon#: UV4), and CD130 (R&D Systems, clone#: 28126) antibodies. The cells were acquired by FACS Fortessa and then FlowJo program was used for data analysis.

[4] = molecular target: T1, BCMA (TNFRSF17) of the commercial human plasma membrane protein array (human, UniProt Q02223 1-184, limits assumed); assay: commercial human plasma membrane protein array
T1 sequence (looked up): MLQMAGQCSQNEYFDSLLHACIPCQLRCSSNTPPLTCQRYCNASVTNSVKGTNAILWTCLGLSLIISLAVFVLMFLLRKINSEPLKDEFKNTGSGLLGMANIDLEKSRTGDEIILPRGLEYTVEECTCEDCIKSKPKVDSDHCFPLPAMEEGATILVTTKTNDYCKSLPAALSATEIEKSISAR

Cc1cn([C@H]2C[C@H](N=[N+]=[N-])[C@@H](CO)O2)c(=O)[nH]c1=O [AZT, 3′-azido-3′-deoxythymidine]
inhibition of CAR expression [1]: effectively inhibit CAR expression

IL15: cytokine
cell size [2]: did not affect | viability [2]: did not affect | expansion of IL6Rβ expressing cells [3]: enhanced expansion of IL6Rβ expressing cells | T cell expansion ([3]; αCD3/αCD28 bead stimulated T cells plus cytokine): showing the greatest enhancement

B1: anti-human BCMA single chain antibody variable fragment (scFv) (PI61) (scFv)
scFv: QVQLQESGGGVVQPGRSLRLSCAASGFTFSSYGMHWVRQAPGKGLEWVAVISYDGSNKYYADSVKGRFTISRDNSKNTLYLQMNSLRAEDTAVYYCGGSGYALHDDYYGLDVWGQGTLVTVSSGGGGSGGGGSGGGGSQSALTQPASVSGSPGQSITISCTGTSSDVGGYNYVSWYQQHPGKAPKLMIYDVSNRPSGVSNRFSGSKSGNTASLTISGLQAEDEADYYCSSYTSSSTLYVFGSGTKVTVL
notes: also called PI61 scFv
binding result [4]: binds
